Measurements taken from US10189853B2, “Conformationally restricted 4-substituted-2,6-dimethylfuro[2,3-d]pyrimidines as anti-tumor agents” (DUQUESNE UNIVERSITY OF THE HOLY SPIRIT, priority 2014, dated 2019).
Like-named read-outs stand apart in the source and are kept apart here.

What was measured:
VEGFR-2 = VEGFR-2 (Homo sapiens (Human), UniProt P35968); experiment: VEGFR-2 kinase inhibition, phosphotyrosine ELISA cytoblot; format: cell-based; conditions: U251 cells, phosphotyrosine ELISA
[1] = tested on: cellular microtubules in A-10 cells; experiment: Microtubule depolymerization, indirect immunofluorescence; format: cell-based; conditions: for EC50: A-10 cells, 18 h, read-out: EC50 for MT depolymerization in A-10 cells
EGFR = EGFR (Homo sapiens (Human), UniProt P00533); experiment: EGFR kinase inhibition, phosphotyrosine ELISA cytoblot; format: cell-based; conditions: A431 cells
EGFR, sequence (P00533 25-1210): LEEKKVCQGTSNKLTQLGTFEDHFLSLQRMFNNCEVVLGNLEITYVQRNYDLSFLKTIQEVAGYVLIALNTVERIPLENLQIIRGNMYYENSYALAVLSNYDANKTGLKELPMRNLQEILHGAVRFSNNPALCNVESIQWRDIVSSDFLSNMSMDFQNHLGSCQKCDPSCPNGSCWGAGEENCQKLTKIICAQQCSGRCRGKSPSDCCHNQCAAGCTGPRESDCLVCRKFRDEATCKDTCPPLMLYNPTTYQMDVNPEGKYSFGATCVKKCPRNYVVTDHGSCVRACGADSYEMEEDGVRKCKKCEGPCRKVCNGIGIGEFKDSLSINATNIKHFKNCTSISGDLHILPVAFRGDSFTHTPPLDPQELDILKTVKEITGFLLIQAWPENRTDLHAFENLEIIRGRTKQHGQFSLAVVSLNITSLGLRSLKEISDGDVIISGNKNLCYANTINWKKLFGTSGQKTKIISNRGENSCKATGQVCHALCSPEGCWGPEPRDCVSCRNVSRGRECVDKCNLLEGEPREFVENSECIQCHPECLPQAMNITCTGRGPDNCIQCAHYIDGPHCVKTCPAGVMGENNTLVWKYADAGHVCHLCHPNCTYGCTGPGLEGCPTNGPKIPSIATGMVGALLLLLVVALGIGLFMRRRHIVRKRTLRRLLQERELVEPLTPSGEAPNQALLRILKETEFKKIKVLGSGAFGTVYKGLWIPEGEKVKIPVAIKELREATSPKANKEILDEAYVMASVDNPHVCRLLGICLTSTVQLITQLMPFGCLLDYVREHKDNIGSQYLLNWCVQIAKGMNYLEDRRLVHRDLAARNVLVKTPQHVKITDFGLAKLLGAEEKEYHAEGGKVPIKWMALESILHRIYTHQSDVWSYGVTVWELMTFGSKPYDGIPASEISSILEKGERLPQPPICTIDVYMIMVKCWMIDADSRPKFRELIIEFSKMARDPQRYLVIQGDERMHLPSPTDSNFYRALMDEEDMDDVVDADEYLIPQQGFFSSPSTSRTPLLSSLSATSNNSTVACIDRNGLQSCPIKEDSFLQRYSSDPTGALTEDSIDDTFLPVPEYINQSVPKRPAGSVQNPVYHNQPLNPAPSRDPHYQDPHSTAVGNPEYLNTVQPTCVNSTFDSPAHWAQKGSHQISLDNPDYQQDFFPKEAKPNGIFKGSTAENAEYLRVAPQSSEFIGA

A431 cancer cells = experiment: A431 cytotoxicity (cell proliferation); format: cell-based, human
PDGFR-β = PDGFR-β (Homo sapiens (Human), UniProt P09619); experiment: PDGFR-β kinase inhibition, phosphotyrosine ELISA cytoblot; format: cell-based; conditions: SH-SY5Y cells, phosphotyrosine ELISA
PDGFR-β, sequence (P09619 33-1106): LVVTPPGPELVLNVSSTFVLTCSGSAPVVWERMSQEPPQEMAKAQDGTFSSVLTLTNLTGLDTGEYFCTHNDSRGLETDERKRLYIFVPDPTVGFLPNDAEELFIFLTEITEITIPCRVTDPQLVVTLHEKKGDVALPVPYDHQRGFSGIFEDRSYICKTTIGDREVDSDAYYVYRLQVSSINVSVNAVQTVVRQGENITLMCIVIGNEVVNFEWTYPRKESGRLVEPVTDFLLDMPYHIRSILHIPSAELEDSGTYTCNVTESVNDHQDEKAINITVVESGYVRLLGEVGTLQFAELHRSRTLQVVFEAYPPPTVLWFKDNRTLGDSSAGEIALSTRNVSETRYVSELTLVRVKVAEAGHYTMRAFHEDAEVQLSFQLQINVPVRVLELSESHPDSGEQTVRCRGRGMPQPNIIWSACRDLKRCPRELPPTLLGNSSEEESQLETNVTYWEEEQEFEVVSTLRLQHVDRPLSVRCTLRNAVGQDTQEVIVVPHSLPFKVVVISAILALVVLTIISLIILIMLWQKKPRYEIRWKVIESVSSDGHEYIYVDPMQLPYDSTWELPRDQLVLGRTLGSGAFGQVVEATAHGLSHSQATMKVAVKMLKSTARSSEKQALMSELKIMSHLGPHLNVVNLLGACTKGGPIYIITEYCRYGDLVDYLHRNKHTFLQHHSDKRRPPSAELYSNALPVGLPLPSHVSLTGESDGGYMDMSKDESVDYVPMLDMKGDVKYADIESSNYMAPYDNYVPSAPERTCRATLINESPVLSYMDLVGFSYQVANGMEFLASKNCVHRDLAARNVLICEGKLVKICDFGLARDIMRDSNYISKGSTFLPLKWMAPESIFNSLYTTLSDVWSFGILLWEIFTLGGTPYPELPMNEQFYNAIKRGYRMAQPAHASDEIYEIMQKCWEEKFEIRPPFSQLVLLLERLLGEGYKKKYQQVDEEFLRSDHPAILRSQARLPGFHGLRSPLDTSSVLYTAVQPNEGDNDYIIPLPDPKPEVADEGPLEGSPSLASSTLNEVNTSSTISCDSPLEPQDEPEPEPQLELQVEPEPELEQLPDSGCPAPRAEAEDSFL

[2] = tested on: M6/6 cells (SK-OV-3 expressing Pgp); experiment: Antiproliferative SRB assay
[3] = tested on: WTβ3 cells (HeLa overexpressing βIII tubulin); experiment: Antiproliferative SRB assay; format: cell-based; conditions: Homo sapiens, HeLa; SRB, 48 h; read-out: IC50 ± SD in WTβ3
MDA-435 cells = experiment: Antiproliferative SRB assay; format: cell-based; conditions: MDA435, 48 h, read-out: IC50 ± SD in MDA-435 cells
SKOV3 cells = experiment: Antiproliferative SRB assay; format: cell-based; conditions: Homo sapiens, SK-OV-3, 48 h, read-out: IC50 ± SD in SKOV3 cells
purified tubulin = experiment: Inhibition of tubulin assembly; format: biochemical; conditions: read-out: Inhibition tubulin assembly IC50 ± SD
[4] = tested on: chicken embryo chorioallantoic membrane; experiment: Chorioallantoic membrane (CAM) assay of angiogenesis; conditions: Gallus gallus, 48 h, read-out: CAM angiogenesis inhibition

VEGFR-2, sequence (P35968 20-1356): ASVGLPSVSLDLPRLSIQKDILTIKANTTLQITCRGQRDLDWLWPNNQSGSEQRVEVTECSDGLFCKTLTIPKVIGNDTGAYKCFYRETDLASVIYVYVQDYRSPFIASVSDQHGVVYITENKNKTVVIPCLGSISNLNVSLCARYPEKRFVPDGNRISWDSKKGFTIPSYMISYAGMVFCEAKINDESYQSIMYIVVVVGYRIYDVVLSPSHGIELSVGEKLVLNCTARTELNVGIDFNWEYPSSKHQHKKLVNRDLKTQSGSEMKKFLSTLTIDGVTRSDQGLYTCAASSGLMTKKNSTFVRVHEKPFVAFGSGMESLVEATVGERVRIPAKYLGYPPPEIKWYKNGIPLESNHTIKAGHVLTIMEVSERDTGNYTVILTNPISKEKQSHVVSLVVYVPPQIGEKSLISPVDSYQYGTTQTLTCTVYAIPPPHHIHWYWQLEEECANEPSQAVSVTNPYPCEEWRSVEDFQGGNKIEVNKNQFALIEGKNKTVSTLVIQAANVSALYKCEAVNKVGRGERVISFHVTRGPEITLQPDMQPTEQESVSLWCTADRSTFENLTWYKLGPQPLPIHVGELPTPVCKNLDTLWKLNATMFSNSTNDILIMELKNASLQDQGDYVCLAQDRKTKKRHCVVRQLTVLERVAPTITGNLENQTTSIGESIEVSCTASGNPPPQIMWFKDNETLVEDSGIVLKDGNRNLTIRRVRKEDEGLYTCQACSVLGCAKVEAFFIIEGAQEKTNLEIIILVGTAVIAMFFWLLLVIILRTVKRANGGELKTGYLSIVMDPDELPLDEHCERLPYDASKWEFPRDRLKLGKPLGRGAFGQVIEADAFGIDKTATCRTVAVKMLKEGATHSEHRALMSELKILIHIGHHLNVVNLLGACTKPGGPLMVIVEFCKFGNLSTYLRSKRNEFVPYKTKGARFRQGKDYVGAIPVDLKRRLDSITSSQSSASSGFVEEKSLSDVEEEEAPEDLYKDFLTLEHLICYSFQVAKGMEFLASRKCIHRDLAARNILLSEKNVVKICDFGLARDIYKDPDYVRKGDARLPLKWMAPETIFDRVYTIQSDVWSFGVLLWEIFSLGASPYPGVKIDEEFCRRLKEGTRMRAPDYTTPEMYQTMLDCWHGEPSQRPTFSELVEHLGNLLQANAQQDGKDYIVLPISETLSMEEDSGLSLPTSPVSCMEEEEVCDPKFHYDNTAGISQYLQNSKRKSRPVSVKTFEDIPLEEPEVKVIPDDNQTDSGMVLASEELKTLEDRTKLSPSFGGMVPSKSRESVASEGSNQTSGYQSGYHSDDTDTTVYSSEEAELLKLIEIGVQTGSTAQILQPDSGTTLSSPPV

Row | IC50 (VEGFR-2) | EC50 ([1]; Rattus norvegicus, A10) | IC50 (EGFR) | IC50 (PDGFR-β) | SMILES | IC50 (A431 cancer cells; Homo sapiens, A-431) | further results
1 | 20.9 ± 3.7 nM | > 10 µM | 103 ± 18.2 nM | 73.2 ± 4.9 nM | COc1ccc2c(c1)CCN2c1nc(C)nc2oc(C)cc12 [Compound 8, 4-(5-methoxyindolin-1-yl)-2,6-dimethylfuro[2,3-d]pyrimidine] | 42.2 ± 5 nM | effect on cellular microtubules ([1]; in words): no effect on cellular microtubules
2 | – | – | – | – | CCCOc1ccc(N(C)c2nc(C)nc3oc(C)cc23)cc1 [Compound 12, N-2,6-trimethyl-N-(4-propoxyphenyl)furo[2,3-d]pyrimidin-4-amine] | – | IC50 (A431 cancer cells): 92.9 ± 10.1 nM; Rr value (relative resistance) ([2]; M6/6 (Pgp) vs SKOV3): 1.3; IC50 ([2]; read-out: IC50 ± SD in M6/6 cells, SRB, 48 h): 30.8 ± 1.7 nM
3 | – | – | – | – | CC(=O)O[C@H]1C(=O)[C@@]2(C)[C@H]([C@H](OC(=O)c3ccccc3)[C@]3(O)C[C@H](OC(=O)[C@H](O)[C@@H](NC(=O)c4ccccc4)c4ccccc4)C(C)=C1C3(C)C)[C@]1(OC(C)=O)CO[C@@H]1C[C@@H]2O [Paclitaxel, reference compound] | – | IC50 [3]: 32.9 ± 5.8 nM; IC50 (MDA-435 cells): 3.3 ± 0.3 nM; IC50 (SKOV3 cells): 6.3 ± 0.4 nM
4 | – | – | – | – | COc1ccc(N(C)c2nc(C)nc3oc(C)cc23)cc1 [Compound 1, reference compound] | – | IC50 (purified tubulin): 2400 ± 10 nM; EC50 [1]: 0.103 µM
5 | 19.9 ± 2.1 nM | > 10 µM | 298 ± 38.1 nM | 50.1 ± 7.8 nM | Cc1nc(N(C)c2ccc3c(c2)OCO3)c2cc(C)oc2n1 [Compound 5, N-1,3-benzodioxol-5-yl-N,2,6-trimethylfuro[2,3-d]pyrimidin-4-amine] | 48.9 ± 5.1 nM | –
6 | – | > 10 µM | – | – | COc1ccc2c(ccn2-c2nc(C)nc3oc(C)cc23)c1 [Compound 9, 4-(5-methoxy-1H-indol-1-yl)-2,6-dimethylfuro[2,3-d]pyrimidine] | > 300 nM | IC50 [4]: > 300 µM
